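A five-concentration, 48-hour dose response in 96-well plates underlies each endpoint, interpolated linearly between surrounding concentrations. Here, GI50 denotes the concentration required for 50% inhibition of growth.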 The source made the active and inactive calls. Cut-off read from the data, not from the text of the source: active = GI50 up to about 1.1 µM and inactive = higher.
How the values were obtained:
Assay in all cases: NCI tumour cell line growth inhibition, 48 h
[1] = test system: 786-0
[2] = test system: HL-60
[3] = test system: HOP-62
[4] = test system: IGROV-1
[5] = test system: K562
[6] = test system: Malme-3M
[7] = test system: NCI-H23
[8] = test system: NCI/ADR-RES
[9] = test system: OVCAR-3
[10] = test system: OVCAR-8
[11] = test system: RPMI-8226
[12] = test system: RXF 393
[13] = test system: SF-268
[14] = test system: SN12C
[15] = test system: SNB-19
[16] = test system: SNB-75
[17] = test system: SR
[18] = test system: UACC-62
[19] = test system: CCRF-CEM
[20] = test system: SK-MEL-5

Structure (SMILES) | GI50 [1] | GI50 [2] | GI50 [3] | GI50 [4] | GI50 [5] | GI50 [6] | GI50 [7] | GI50 [8] | GI50 [9] | GI50 [10] | GI50 [11] | GI50 [12] | GI50 [13] | GI50 [14] | GI50 [15] | GI50 [16] | GI50 [17] | GI50 [18] | GI50 [19] | GI50 [20]
c1ccc2sc(SCCSc3nc4ccccc4s3)nc2c1 | > 100 µM (inactive) | 65.8 µM (inactive) | > 100 µM (inactive) | > 100 µM (inactive) | > 100 µM (inactive) | > 100 µM (inactive) | > 100 µM (inactive) | > 100 µM (inactive) | > 100 µM (inactive) | > 100 µM (inactive) | > 100 µM (inactive) | > 100 µM (inactive) | > 100 µM (inactive) | > 100 µM (inactive) | > 100 µM (inactive) | 74.3 µM (inactive) | > 100 µM (inactive) | > 100 µM (inactive) |  | 
Cc1cc2c(O)c(c1)COCc1cc(C)cc(c1O)COCc1cc(C)cc(c1O)COC2 | 47.1 µM (inactive) | > 100 µM (inactive) | > 100 µM (inactive) |  | > 100 µM (inactive) | > 100 µM (inactive) | > 100 µM (inactive) | > 100 µM (inactive) | > 100 µM (inactive) | 50.1 µM (inactive) | > 100 µM (inactive) | > 100 µM (inactive) | > 100 µM (inactive) | > 100 µM (inactive) | > 100 µM (inactive) | 80.5 µM (inactive) | 91 µM (inactive) | > 100 µM (inactive) | 32.1 µM (inactive) | 
Cn1c(CO)ccc1-c1ccc(-c2ccc[se]2)[se]1 | 29.1 µM (inactive) | 21.8 µM (inactive) | 20.7 µM (inactive) | 0.0384 µM (active) | 0.449 µM (active) | > 72.1 µM (inactive) | 20.5 µM (inactive) | 32.7 µM (inactive) |  | 23 µM (inactive) | 20.9 µM (inactive) | 3.07 µM (inactive) | 56.9 µM (inactive) | > 52.4 µM (inactive) | 30.7 µM (inactive) | 12.8 µM (inactive) | 30.3 µM (inactive) |  | 23.1 µM (inactive) | 29.8 µM (inactive)
O=C(c1ccc(Cl)c(Cl)c1)N(Cc1cccnc1)C(=S)N(Cc1cccnc1)C(=O)c1ccc(Cl)c(Cl)c1 | 20.4 µM (inactive) | 49.3 µM (inactive) | 27.4 µM (inactive) |  | 30.3 µM (inactive) | 52.8 µM (inactive) | 37.8 µM (inactive) | 31.3 µM (inactive) | 25.5 µM (inactive) | 30.5 µM (inactive) | 5.5 µM (inactive) | 28.4 µM (inactive) | 36.1 µM (inactive) | 24.1 µM (inactive) | 27.9 µM (inactive) | 38.4 µM (inactive) | 17.5 µM (inactive) | 50.7 µM (inactive) | 94 µM (inactive) | 27.7 µM (inactive)
CCOC(=O)C(O)(NC(=O)Nc1ccc(F)cc1)C(F)(F)F (stereo not drawn) | > 100 µM (inactive) | > 100 µM (inactive) |  | > 100 µM (inactive) | > 100 µM (inactive) |  | > 100 µM (inactive) | > 100 µM (inactive) |  | > 100 µM (inactive) | > 100 µM (inactive) | > 100 µM (inactive) | > 100 µM (inactive) | > 100 µM (inactive) | > 100 µM (inactive) | > 100 µM (inactive) | > 100 µM (inactive) |  | > 100 µM (inactive) | > 100 µM (inactive)
COc1cc(-c2oc(/C=N/c3ccccc3)c([N+](=O)[O-])c2-c2ccc(O)c(OC)c2)ccc1O | 20.6 µM (inactive) | 0.412 µM (active) | 33.8 µM (inactive) | 15.4 µM (inactive) | 36.1 µM (inactive) |  | 16.3 µM (inactive) | 22.8 µM (inactive) | 35.4 µM (inactive) | 17.3 µM (inactive) | 25.1 µM (inactive) | 22.8 µM (inactive) | 19.7 µM (inactive) | 27 µM (inactive) | 22.4 µM (inactive) | 11.5 µM (inactive) | 2.86 µM (inactive) | 17.9 µM (inactive) | 6.31 µM (inactive) | 23.7 µM (inactive)

Source: ChEMBL document CHEMBL1201862, “PubChem BioAssay data set” (2004)
